Assay: Study underlying Fig. 6: cumulative food intake after ip ghrelin and desacyl ghrelin, alone or simultaneously, freely fed rats, light phase
Format: in vivo, SD rats
Settings: ghrelin 13 µg/kg ip plus vehicle
Method: Male adult SD rats (Harlan-Winkelmann Co., Borchen, Germany) weighting 250 g were housed in groups of 4 rats/cage under conditions of controlled illumination (12:12 h light/dark cycle, lights on/off: 6:30 a.m./6:30 p.m.), humidity, and temperature (22 ± 2°C). Animals were fed with a standard rat diet (Altromin®, Lage, Germany) and tap water ad libitum. All animals were trained daily to be accustomed to the experimental conditions for 14 days before starting the experiments. During the handling phase, the back position was practiced to make animals familiar with receiving an ip injection.
Rat desacyl ghrelin (0.5 mg/ml; Peptides International, Louisville, USA) or rat ghrelin (1 mg/ml) was dissolved in distilled water and stored at -20°C. Immediately before starting the experiments, peptides were diluted in vehicle solution consisting of sterile 0.15 M NaCl (Braun, Melsungen, Germany) to reach the final concentration of 13 µg (∼4 nmol) ghrelin/kg, and 64 µg (∼20 nmol) or 127 µg (∼40 nmol) desacyl ghrelin/kg body weight. Peptide solutions were kept on ice for the duration of the experiments. […]
On the day of the experiment, freely fed animals were injected ip simultaneously (final volume: 0.5 ml) with vehicle plus vehicle (0.15 M NaCl + 0.15 M NaCl, n=13), ghrelin plus vehicle (13 µg/kg + 0.15 M NaCl, n=13), ghrelin (13 µg/kg) plus 64 µg/kg or 127 µg/kg desacyl ghrelin (n =13 in both groups), or vehicle plus 64 µg/kg desacyl ghrelin (n=13) and returned to single housing cages immediately after the injection. […] Food intake was determined by measuring the difference between the preweighed standard chow and the weight of chow at the end of the first 30 min, 1 h and 2 h food exposure.
The cumulative food intake monitored at the end of the first 30 min, 1 h, and 2 h after peptide or vehicle injection was expressed as food intake (g)/body weight (kg) (Ruter et al. 2003). Data were expressed as mean ± SEM and analyzed by Kruskal-Wallis One Way ANOVA. Differences between groups were evaluated by the Student-Newman-Keuls method; p < 0.05 was considered significant.

n-octanoyl-ghrelin
cumulative food intake (2h, vehicle plus vehicle 2.65 ± 0.93): 7.71 ± 0.97 g/kg body weight | food intake (first half hour, vehicle plus vehicle 1.49 ± 0.72): 5.76 ± 0.68 g/kg body weight | cumulative food intake (one hour, vehicle plus vehicle 1.49 ± 0.72): 7.29 ± 0.92 g/kg
